Test results published in the supplement of paper PMC11208160.

Test: recombinant UMI read abundance after kanamycin selection (control-corrected) (log10(CPM+1)); higher = more efficient recombination; extreme values may be limits of the assay; sequences stand for … in AGTGCAGAGAAAATCGGCCAGTTTTCTCTGCCTGCAGTCCGCATGCCGTGGGACCCCTTGGGTTCTAACCTGTTGCCTAGATTTATGCAGCGGACTGCCTTTCTCCCAAAGTGATAAACCGG…AGGTTGGTTTCACT; site = the 11-nt donor
In short: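 For the IS621 bridge recombinase, a pooled Escherichia coli screen tested donor and donor-binding-loop pairs. Cells received the pair library together with a target plasmid encoding a fixed target and T7-inducible recombinase, then went onto IPTG (0.07 mM) plus kanamycin or unselected plates in duplicate. After PCR across the donor–target junction and sequencing, recombinant UMI counts were normalized to CPM, averaged, and scaled by control-derived factors. Each value is given as log10(CPM+1).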
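Further: IS621 bridge recombinase in Escherichia coli cells against a fixed T5 target plasmid.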

“GGGGCGCCATGGACCGGTTTTCCCGGTAATCCGTATTTGCA (site GGGGCCCCTTG)” and “GGGGCGCCATGGACCGGTTTTCCCGGTAATCCGTATTTGCA (site GGGGCGCCTTG)” are within 0.2 log units of each other in “recombinant UMI read abundance (log10)” value: 0 for the first, 0.0101 for the second.

“GGGGCGCCATGGACCGGTTTTCCCGGTAATCCGTATTTGCA (site GGGGCTCCTTG)” and “GGGGCTCCATGGACCGGTTTTCCCGGTAATCCGTATTTGCA (site GGGGCACCTTG)” are within 0.2 log units of each other in “recombinant UMI read abundance (log10)” value: 0 for the first, 0.0623 for the second.

Compared with “GGGGCTCCATGGACCGGTTTTCCCGGTAATCCGTATTTGCA (site GGGGCCCCTTG)”, “GGGGCTCCATGGACCGGTTTTCCCGGTAATCCGTATTTGCA (site GGGGCGCCTTG)” is lower in “recombinant UMI read abundance (log10)” value: 0.407 for the first, 0.0195 for the second.

Going from “GGGGCTCCATGGACCGGTTTTCCCGGTAATCCGTATTTGCA (site GGGGCTCCTTG)” to “GGGGTAGCATGGACCGGTTTTCCCGGTAATCCGTATTTGTC (site GGGGTAGCTGA)”, the “recombinant UMI read abundance (log10)” value rises from 1.13 to 2.71.

Compared with “GGGTAATCATGGACCGGTTTTCCCGGTAATCCGTATTTGAT (site GGGTAATCTAT)”, “GGGTACGCATGGACCGGTTTTCCCGGTAATCCGTATTTGTA (site GGGTACGCTTA)” is lower in “recombinant UMI read abundance (log10)” value: 3.04 for the first, 2.47 for the second.

Going from “GGGTAGACATGGACCGGTTTTCCCGGTAATCCGTATTTGCC (site GGATAGACTGG)” to “GGGTAGACATGGACCGGTTTTCCCGGTAATCCGTATTTGCC (site GGCTAGACTGG)”, the “recombinant UMI read abundance (log10)” value falls from 2.81 to 0.

First: GGGTAGACATGGACCGGTTTTCCCGGTAATCCGTATTTGCC (site GGGTAGACTGG)
Second: GGGTAGACATGGACCGGTTTTCCCGGTAATCCGTATTTGCC (site GGTTAGACTGG)
The “recombinant UMI read abundance (log10)” value of the first is higher: 2.39 for the first, 0.949 for the second.

Compared with “GGTAATTCATGGACCGGTTTTCCCGGTAATCCGTATTTGGT (site GGTAATTCTAC)”, “GGTACATCATGGACCGGTTTTCCCGGTAATCCGTATTTGTT (site GGTACATCTAA)” is lower in “recombinant UMI read abundance (log10)” value: 1.18 for the first, 0.0632 for the second.

“GGTACATCATGGACCGGTTTTCCCGGTAATCCGTATTTGTT (site GGTACCTCTAA)” and “GGTACATCATGGACCGGTTTTCCCGGTAATCCGTATTTGTT (site GGTACGTCTAA)” are within 0.2 log units of each other in “recombinant UMI read abundance (log10)” value: 0.00401 for the first, 0.0133 for the second.

Compared with “GGTACATCATGGACCGGTTTTCCCGGTAATCCGTATTTGTT (site GGTACTTCTAA)”, “GGTACGTCATGGACCGGTTTTCCCGGTAATCCGTATTTGGA (site GGTACGTCTTC)” is higher in “recombinant UMI read abundance (log10)” value: 0.00584 for the first, 0.695 for the second.

“GGTACTCCATGGACCGGTTTTCCCGGTAATCCGTATTTGTA (site GGTACTCCTTA)” and “GGTACTGCATGGACCGGTTTTCCCGGTAATCCGTATTTGGA (site GGTACTGCTTC)” are within 0.2 log units of each other in “recombinant UMI read abundance (log10)” value: 0.301 for the first, 0.135 for the second.

“GGTACTTCATGGACCGGTTTTCCCGGTAATCCGTATTTGTT (site GGTACATCTAA)” and “GGTACTTCATGGACCGGTTTTCCCGGTAATCCGTATTTGTT (site GGTACCTCTAA)” are within 0.2 log units of each other in “recombinant UMI read abundance (log10)” value: 0.0111 for the first, 0.0128 for the second.

Compared with “GGTACTTCATGGACCGGTTTTCCCGGTAATCCGTATTTGTT (site GGTACGTCTAA)”, “GGTACTTCATGGACCGGTTTTCCCGGTAATCCGTATTTGTT (site GGTACTTCTAA)” is higher in “recombinant UMI read abundance (log10)” value: 0.011 for the first, 0.456 for the second.

“GGTAGGTCATGGACCGGTTTTCCCGGTAATCCGTATTTGTT (site GGTAAGTCTAA)” and “GGTAGGTCATGGACCGGTTTTCCCGGTAATCCGTATTTGTT (site GGTACGTCTAA)” are within 0.2 log units of each other in “recombinant UMI read abundance (log10)” value: 0.00393 for the first, 0.0163 for the second.

“GGTAGGTCATGGACCGGTTTTCCCGGTAATCCGTATTTGTT (site GGTAGGTCTAA)” and “GGTAGGTCATGGACCGGTTTTCCCGGTAATCCGTATTTGTT (site GGTATGTCTAA)” are within 0.2 log units of each other in “recombinant UMI read abundance (log10)” value: 0.00338 for the first, 0.0159 for the second.

Compared with “GGTAGTGCATGGACCGGTTTTCCCGGTAATCCGTATTTGCC (site GGTAGTGCTGG)”, “GGTATGGCATGGACCGGTTTTCCCGGTAATCCGTATTTGCA (site GGTATGGCTTG)” is higher in “recombinant UMI read abundance (log10)” value: 1.61 for the first, 1.9 for the second.

First: GGTCATCCATGGACCGGTTTTCCCGGTAATCCGTATTTGAA (site GGTCATCCTTT)
Second: GGTCATTCATGGACCGGTTTTCCCGGTAATCCGTATTTGTG (site GGTCATTCTCA)
The “recombinant UMI read abundance (log10)” value of the first is lower: 0.0104 for the first, 1.05 for the second.

“GGTCCAACATGGACCGGTTTTCCCGGTAATCCGTATTTGAA (site GGTCCAACTTA)” and “GGTCCAACATGGACCGGTTTTCCCGGTAATCCGTATTTGAA (site GGTCCAACTTC)” are within 0.2 log units of each other in “recombinant UMI read abundance (log10)” value: 0.0074 for the first, 0.00549 for the second.

“GGTCCAACATGGACCGGTTTTCCCGGTAATCCGTATTTGAA (site GGTCCAACTTG)” and “GGTCCAACATGGACCGGTTTTCCCGGTAATCCGTATTTGAA (site GGTCCAACTTT)” are within 0.2 log units of each other in “recombinant UMI read abundance (log10)” value: 0 for the first, 0.0109 for the second.

“GGTCCAACATGGACCGGTTTTCCCGGTAATCCGTATTTGTT (site GGTCCAACTAA)” and “GGTCCAACATGGACCGGTTTTCCCGGTAATCCGTATTTGTT (site GGTCCAACTCA)” are within 0.2 log units of each other in “recombinant UMI read abundance (log10)” value: 0.0107 for the first, 0.0106 for the second.

“GGTCCAACATGGACCGGTTTTCCCGGTAATCCGTATTTGTT (site GGTCCAACTGA)” and “GGTCCAACATGGACCGGTTTTCCCGGTAATCCGTATTTGTT (site GGTCCAACTTA)” are within 0.2 log units of each other in “recombinant UMI read abundance (log10)” value: 0.00734 for the first, 0.0123 for the second.

“GGTCCGACATGGACCGGTTTTCCCGGTAATCCGTATTTGTA (site GGTCCAACTTA)” and “GGTCCGACATGGACCGGTTTTCCCGGTAATCCGTATTTGTA (site GGTCCCACTTA)” are within 0.2 log units of each other in “recombinant UMI read abundance (log10)” value: 0.0275 for the first, 0.00256 for the second.

“GGTCCGACATGGACCGGTTTTCCCGGTAATCCGTATTTGTA (site GGTCCGACTTA)” and “GGTCCGACATGGACCGGTTTTCCCGGTAATCCGTATTTGTA (site GGTCCTACTTA)” are within 0.2 log units of each other in “recombinant UMI read abundance (log10)” value: 0.0268 for the first, 0.0182 for the second.

“GGTCCGGCATGGACCGGTTTTCCCGGTAATCCGTATTTGTC (site GGTCCGGCTGA)” and “GGTCCTACATGGACCGGTTTTCCCGGTAATCCGTATTTGTA (site GGTCCAACTTA)” are within 0.2 log units of each other in “recombinant UMI read abundance (log10)” value: 0 for the first, 0.00723 for the second.

“GGTCCTACATGGACCGGTTTTCCCGGTAATCCGTATTTGTA (site GGTCCCACTTA)” and “GGTCCTACATGGACCGGTTTTCCCGGTAATCCGTATTTGTA (site GGTCCGACTTA)” are within 0.2 log units of each other in “recombinant UMI read abundance (log10)” value: 0.0198 for the first, 0.0128 for the second.

“GGTCCTACATGGACCGGTTTTCCCGGTAATCCGTATTTGTA (site GGTCCTACTTA)” and “GGTCCTCCATGGACCGGTTTTCCCGGTAATCCGTATTTGTT (site GGTCCTCCTAA)” are within 0.2 log units of each other in “recombinant UMI read abundance (log10)” value: 0.0187 for the first, 0.025 for the second.

First: GGTCGAGCATGGACCGGTTTTCCCGGTAATCCGTATTTGCA (site GATCGAGCTTG)
Second: GGTCGAGCATGGACCGGTTTTCCCGGTAATCCGTATTTGCA (site GCTCGAGCTTG)
The “recombinant UMI read abundance (log10)” value of the first is higher: 0.273 for the first, 0.0115 for the second.

Compared with “GGTCGAGCATGGACCGGTTTTCCCGGTAATCCGTATTTGCA (site GGTCGAGCTTG)”, “GGTCGAGCATGGACCGGTTTTCCCGGTAATCCGTATTTGCA (site GTTCGAGCTTG)” is lower in “recombinant UMI read abundance (log10)” value: 1.83 for the first, 0.824 for the second.

Going from “GGTCGCTCATGGACCGGTTTTCCCGGTAATCCGTATTTGCT (site GGTCGCTCTAG)” to “GGTCGGCCATGGACCGGTTTTCCCGGTAATCCGTATTTGAA (site GGTCGGCCTTT)”, the “recombinant UMI read abundance (log10)” value falls from 0.782 to 0.

Going from “GGTGAGCCATGGACCGGTTTTCCCGGTAATCCGTATTTGGG (site GGTGAGCCTCC)” to “GGTGCATCATGGACCGGTTTTCCCGGTAATCCGTATTTGCT (site GGTGCATCTAG)”, the “recombinant UMI read abundance (log10)” value rises from 0.0257 to 1.92.

First: GGTGCCCCATGGACCGGTTTTCCCGGTAATCCGTATTTGAC (site GGTGCCCCTGT)
Second: GGTGGAACATGGACCGGTTTTCCCGGTAATCCGTATTTGTT (site AGTGGAACTAA)
The “recombinant UMI read abundance (log10)” value of the first is lower: 0 for the first, 0.371 for the second.

Compared with “GGTGGAACATGGACCGGTTTTCCCGGTAATCCGTATTTGTT (site CGTGGAACTAA)”, “GGTGGAACATGGACCGGTTTTCCCGGTAATCCGTATTTGTT (site GGTGGAACTAA)” is higher in “recombinant UMI read abundance (log10)” value: 0.00196 for the first, 0.746 for the second.

“GGTGGAACATGGACCGGTTTTCCCGGTAATCCGTATTTGTT (site TGTGGAACTAA)” and “GGTGTGCCATGGACCGGTTTTCCCGGTAATCCGTATTTGAC (site GGTGTGCCTGT)” are within 0.2 log units of each other in “recombinant UMI read abundance (log10)” value: 0.00382 for the first, 0 for the second.

First: GGTTACTCATGGACCGGTTTTCCCGGTAATCCGTATTTGGA (site GGTTACTCTTC)
Second: GGTTAGACATGGACCGGTTTTCCCGGTAATCCGTATTTGAG (site AGTTAGACTCT)
The “recombinant UMI read abundance (log10)” value of the first is higher: 1.18 for the first, 0.498 for the second.
